Measured values from US12466849B2, “Anti-viral and anti-tumoral compounds” (YEDA RESEARCH AND DEVELOPMENT CO. LTD, priority 2020, dated 2025).
Values after ≈ are worked out from the molar mass of the structure shown. Where two headings read alike, the source gives them in different places.

Tests used:
poliovirus-1 (POV-1) [1] = conditions: for SI: POV-1, SI = CC50/EC50
[2] = tested on: enterovirus-68 (EV-68, US/DY/14-18953); conditions: EV-68; SI = CC50/EC50
in vitro [3] = conditions: human
poliovirus-1 (POV-1) [4] = assay: organism not typed
[5] = tested on: enterovirus-68 (EV-68, US/DY/14-18953); assay: organism not typed; conditions: RD
HCMV AD169 = assay: HCMV plaque reduction assay, MRC-5 cells, strain AD169; format: cell-based, Human cytomegalovirus; conditions: Human betaherpesvirus 5, 144 h; hCMV AD169, MRC5 cells, plaque assay, 6-days duration
adenovirus-5 (Ad5) [6] = conditions: Ad5; SI = CC50/EC50
TCRV [7] = conditions: TCRV; SI = CC50/EC50
[8] = tested on: Rift Valley fever virus (RVFV); conditions: RVFV; SI = CC50/EC50
SARS-CoV [9] = conditions: SARS-CoV; SI = CC50/EC50
SARS-CoV-2 [10] = conditions: SARS-CoV-2; SI = CC50/EC50
dengue virus-2 (DV-2) [11] = conditions: DV-2; SI = CC50/EC50
[12] = tested on: Japanese encephalitis virus (JEV); conditions: JEV; SI = CC50/EC50
Powassan virus (POWV) [13] = conditions: POWV; SI = CC50/EC50
West Nile virus (WNV) [14] = conditions: WNV; SI = CC50/EC50
Yellow fever virus (YFV) [15] = conditions: YFV; SI = CC50/EC50
[16] = tested on: Venezuelan equine encephalitis virus (VEEV); conditions: VEEV; SI = CC50/EC50
Zika virus [17] = conditions: Zika; SI = CC50/EC50
influenza A(H1N1) [18] = tested on: influenza A(H1N1)
influenza A(H5N1) [19] = tested on: influenza A(H5N1)
Influenza B [20] = tested on: Influenza B
RSV [21] = conditions: RSV; SI = CC50/EC50
enterovirus-68 (EV-68) [22] = conditions: EV-68; SI = CC50/EC50
[23] = human
[24] = rat, 1 µM
in vitro [25] = conditions: African green monkey
in vitro [26] = conditions: African green monkey; remark: listed apart in the source
in vitro [27] = conditions: African green monkey; remark: listed apart in the source
in vitro [28] = conditions: African green monkey; remark: listed apart in the source
in vitro [29] = conditions: Syrian hamster
in vitro [30] = conditions: African green monkey; remark: listed apart in the source
in vitro [31] = conditions: African green monkey; remark: listed apart in the source
in vitro [32] = conditions: African green monkey; remark: listed apart in the source
in vitro [33] = conditions: dog
in vitro [34] = conditions: dog; remark: listed apart in the source
in vitro [35] = conditions: dog; remark: listed apart in the source
in vitro [36] = conditions: African green monkey; remark: listed apart in the source
in vitro [37] = conditions: African green monkey; remark: listed apart in the source
adenovirus-5 (Ad5) [38] = assay: organism not typed; conditions: A549
enterovirus-68 (EV-68) [39] = assay: organism not typed; conditions: RD
TCRV [40] = assay: microbe, parasite or virus in culture; conditions: Mammarenavirus tacaribeense, Vero C1008
[41] = tested on: Rift Valley fever virus (RVFV); assay: microbe, parasite or virus in culture; conditions: Vero 76
SARS-CoV [42] = assay: microbe, parasite or virus in culture; conditions: Severe acute respiratory syndrome coronavirus, Vero 76
SARS-CoV-2 [43] = assay: microbe, parasite or virus in culture; conditions: Severe acute respiratory syndrome coronavirus 2, Vero 76
dengue virus-2 (DV-2) [44] = assay: microbe, parasite or virus in culture; conditions: Huh-7
[45] = tested on: Japanese encephalitis virus (JEV); assay: microbe, parasite or virus in culture; conditions: Vero 76
Powassan virus (POWV) [46] = assay: microbe, parasite or virus in culture; conditions: BHK-21
West Nile virus (WNV) [47] = assay: microbe, parasite or virus in culture; conditions: Vero 76
Yellow fever virus (YFV) [48] = assay: microbe, parasite or virus in culture; conditions: Huh-7
[49] = tested on: Venezuelan equine encephalitis virus (VEEV); assay: microbe, parasite or virus in culture; conditions: Vero 76
Zika virus [50] = assay: microbe, parasite or virus in culture; conditions: Vero 76
influenza A(H1N1) [51] = assay: microbe, parasite or virus in culture; conditions: H1N1, MDCK
influenza A(H5N1) [52] = assay: microbe, parasite or virus in culture; conditions: H5N1, MDCK
Influenza B [53] = assay: microbe, parasite or virus in culture; conditions: MDCK
RSV [54] = assay: microbe, parasite or virus in culture; conditions: human respiratory syncytial virus, MA104
[55] = MRC-5 cytotoxicity assay (MTS) and visual cytotoxicity; conditions: human

## CC(C)S(=O)(=O)n1c(N)nc2ccc(/C(=N/O)c3ccccc3)cc21 [Enviroxime]
poliovirus-1 (POV-1) [1]
  SI: 350
poliovirus-1 (POV-1) [1]; Vero 76 cells without virus, positive control
  CC50: 3.3 µg/mL (≈ 9.21 µM)
[2]
  SI50 (SI): 46
In vitro [3]
  CC50: 5.5 µg/mL (≈ 15.3 µM)
poliovirus-1 (POV-1) [4]; Vero 76, read-out: EQ50
  EC50: 0.0095 µg/mL
[5]
  EC50: 0.12 µg/mL (≈ 0.335 µM)

## Nc1nc2c(ncn2[C@@H]2OC(CO)=CC2O)c(=O)[nH]1 (some centres unmarked) [AB21651]
HCMV AD169
  EC50: > 100 µM
adenovirus-5 (Ad5) [6]
  SI: 0
TCRV [7]
  SI: 0
[8]
  SI: 0
SARS-CoV [9]
  SI: 0
SARS-CoV-2 [10]
  SI: 0
Dengue virus-2 (DV-2) [11]
  SI: 0
[12]
  SI: 0
Powassan virus (POWV) [13]
  SI: 0
West Nile virus (WNV) [14]
  SI: 0
Yellow fever virus (YFV) [15]
  SI: 0
[16]
  SI: 0
Zika virus [17]
  SI: 0
Influenza A(H1N1) [18]
  antiviral activity against Influenza (H1N1) (in words): exhibits antiviral activity
Influenza A(H1N1) [18]; H1N1
  SI: >4.5
Influenza A(H5N1) [19]; Table 11
  antiviral activity against Influenza (H5N1) (in words): exhibits antiviral activity
Influenza A(H5N1) [19]; influenza A(H5N1), SI = CC50/EC50
  SI: >1.5
Influenza B [20]
  SI: 0
RSV [21]
  SI: 0
poliovirus-1 (POV-1) [1]
  SI: 0
enterovirus-68 (EV-68) [22]
  SI: 0
[23]; 0 min, 1 µM
  Peak area ratio, metabolite formed (AB21649 from AB23039, AB21651 from AB23040): 6.17E−04
[23]; 0 min, 1 μM
  Peak area ratio, metabolite formed (AB21649 from AB23039, AB21651 from AB23040): 7.04E−04
[23]; 15 min, 1 μM
  Peak area ratio, metabolite formed (AB21649 from AB23039, AB21651 from AB23040): 1.03E−03
[23]; 60 min, 1 μM
  Peak area ratio, metabolite formed (AB21649 from AB23039, AB21651 from AB23040): 1.50E−03
[24]; 15 min
  Peak area ratio, metabolite formed (AB21649 from AB23039, AB21651 from AB23040): 6.93E−04
[24]; 60 min
  Peak area ratio, metabolite formed (AB21649 from AB23039, AB21651 from AB23040): 7.68E−04
In vitro [25]
  CC50: > 2000 µM
In vitro [26]
  CC50: > 2000 µM
In vitro [27]
  CC50: > 2000 µM
In vitro [28]
  CC50: > 2000 µM
In vitro [29]
  CC50: > 2000 µM
In vitro [30]
  CC50: > 2000 µM
In vitro [31]
  CC50: > 2000 µM
In vitro [32]
  CC50: > 2000 µM
In vitro [33]
  CC50: > 2000 µM
In vitro [34]
  CC50: > 2000 µM
In vitro [35]
  CC50: > 2000 µM
In vitro [36]
  CC50: > 2000 µM
In vitro [37]
  CC50: > 2000 µM
adenovirus-5 (Ad5) [38]
  EC50: > 2000 µM
poliovirus-1 (POV-1) [4]; Vero 76
  EC50: > 2000 µM
enterovirus-68 (EV-68) [39]
  EC50: > 1100 µM
TCRV [40]
  EC50: > 2000 µM
[41]
  EC50: > 2000 µM
SARS-CoV [42]
  EC50: > 2000 µM
SARS-CoV-2 [43]
  EC50: > 2000 µM
Dengue virus-2 (DV-2) [44]
  EC50: > 2000 µM
[45]
  EC50: > 2000 µM
Powassan virus (POWV) [46]
  EC50: > 2000 µM
West Nile virus (WNV) [47]
  EC50: > 2000 µM
Yellow fever virus (YFV) [48]
  EC50: > 2000 µM
[49]
  EC50: > 2000 µM
Zika virus [50]
  EC50: > 2000 µM
Influenza A(H1N1) [51]
  EC50: 440 µM
Influenza A(H5N1) [52]
  EC50: 1300 µM
Influenza B [53]
  EC50: > 2000 µM
RSV [54]
  EC50: > 2000 µM
[55]
  CC50 at 6 days: > 100 µM
